# Laboratory results as given in patent US20130280252A1, “METHOD FOR SELECTING PATIENT TO BE GIVEN DRUG FOR TREATING SEPTICEMIA” (MOCHIDA PHARMACEUTICAL CO., LTD., priority 2011, published 2013).
# “Also recorded” adds a separate entry of the source. Counter-ions that a name gives are not always drawn. Like-named read-outs stand apart in the source and are kept apart here.
# Experiments:
# rabbit CLP model [1] = assay: Rabbit CLP model with E5564 (Example 3-1); format: in vivo; settings: 3 mg/kg to 10 mg/kg; 1 and 5 hours or 2 and 6 hours after surgery
# Experimental: A rabbit CLP model is prepared as in Example 1. The E5564 administration timing is set to 1 hour and 5 hours after surgery or 2 hours and 6 hours after surgery and, as in Example 1, the sCD14-ST concentration in the blood at the time the therapeutic agent is administered is later checked with reference to the blood sCD14-ST concentration transition data. The dosage of E5564 is 3 mg/kg to 10 mg/kg. The body temperature and the leukocyte count of the rabbits are measured with time and used as indexes of the physiological conditions.
# severe septic patients [2] = assay: Human clinical test of E5564 in severe septic patients; format: in vivo; settings: patients meeting at least three SIRS criteria and sCD14-ST equal to or greater than cut-off
# Experimental: (§1) According to one example of the patient selection standards, E5564 is administered to a patient who meets at least three items of the SIRS diagnostic criteria to [4] and whose sCD14-ST concentration is equal to or greater than the cut-off value. Addition of the sCD14-ST concentration to the indexes used in setting the patient selection standards enables establishment of the patient selection standards that suit the action mechanism of E5564 and thus permits further improvement in E5564 efficacy than when the patient selection standards are set using only the physiological conditions as indexes.
# severe septic patients [3] = settings: high-dosage group; mortality risk 20% to 80% by APACHE II Score; cited from earlier work
# rabbit CLP model [4] = assay: Resatorvid-administered rabbit CLP model (Example 4); format: in vivo
# Experimental: Two Resatorvid-administered groups were set with different administration timings. Ten mg/kg of Resatorvid was intravenously administered at timings of 1 hour and 5 hours after surgery to one group (hereinafter referred to as first-hour administered group) and 3 hours and 7 hours after surgery to the other group (hereinafter referred to as third-hour administered group). A group not to be administered Resatorvid (hereinafter referred to as control group) was administered a 10% aqueous solution of cyclodextrin, a Resatorvid solvent, 1 hour and 5 hours after surgery. Each of the groups consisted of 10 individuals; survival was checked until 48 hours after surgery. The platelet count and the leukocyte count were measured until 24 hours after surgery.
# rabbit CLP model [5] = assay: Rabbit CLP model with Resatorvid (Example 2-1); format: in vivo; settings: 3 mg/kg to 10 mg/kg; 1 and 5 hours or 2 and 6 hours after surgery
# Experimental: A rabbit CLP model is prepared as in Example 1. The Resatorvid administration timing is set to 1 hour and 5 hours after surgery or 2 hours and 6 hours after surgery and, as in Example 1, the blood sCD14-ST concentration at the time the therapeutic agent is administered is later checked with reference to the blood sCD14-ST concentration transition data. The dosage of Resatorvid is 3 mg/kg to 10 mg/kg. The body temperature and the leukocyte count of the rabbits are measured with time and used as indexes of the physiological conditions.
# severe septic patients [6] = settings: severe sepsis with shock or respiratory failure, cited from earlier work
# severe septic patients [7] = assay: Human clinical test of Resatorvid in severe septic patients; format: in vivo; settings: patients meeting at least three SIRS criteria and sCD14-ST equal to or greater than cut-off
# Experimental: The specific standards used for selection of patients are as follows: Severe sepsis meets at least three items of the SIRS diagnostic criteria to [4], and the patient has or is suspected to have an infection requiring treatment with antibiotics. Septic shock needs a vasopressor to maintain a systolic blood pressure of at least 90 mmHg even under an appropriate body fluid management.
# as §1, with “Resatorvid” for “E5564”, “enables” for “permits”
# [8] = tested on: cecal ligation and puncture-induced peritonitis rabbit model (rabbit CLP model); assay: Rabbit CLP sepsis model, F1024S-D2(3) administered (Example 1); format: in vivo; settings: for Survival time: 10 mg/kg intravenously two hours after surgery
# Experimental: A cecal ligation and puncture-induced peritonitis rabbit model (rabbit CLP model; CLP for cecal ligation and puncture) was used as the sepsis model to verify the improvement in efficacy of the therapeutic agent for sepsis when a patient to be administered the therapeutic agent for sepsis (F1024S-D2(3)) was selected using the sCD14-ST concentration as index. The rabbit CLP model was prepared using male rabbits, New Zealand white, each weighing 1.5 kg to 1.99 kg on arrival (Kitayama Labes Co., Ltd.), which had their cecum punctured under anesthesia at two places to make holes each measuring 2 cm to release the cecal contents into the peritoneal cavity according to the method described by Keith A et al (Journal of Surgical Research, Vol. 29, 189 (1980)). In order to stabilize the postsurgical state, all the operated individuals were intravenously administered 60 mg/kg of Shiomarin (Latamoxef Sodium for administration by injection, Shionogi & Co., Ltd.) two hours after surgery.
# Blood was sampled at intervals before and after surgery to measure the sCD14-ST concentrations in the blood. The sCD14-ST concentrations in the blood were measured by the method described in Example 3 in WO2009/142303. In this model, the pathology progresses within several hours, resulting in death within 7 to 8 hours after surgery in the earliest cases. Because the measured values of the sCD14-ST concentration in the blood can only be known five to six hours after blood sampling, administering the therapeutic agent only after checking the results is belated. Therefore, the administration timing of the therapeutic agent was set to two hours after surgery, and the blood sCD14-ST concentration at the time when the therapeutic agent was administered was later checked with reference to blood sCD14-ST concentration transition data. Using the respective sCD14-ST concentrations in the blood before surgery of the individuals as normal values, twice the normal values were set as the respective cut-off values. Thus, the survival rates of the cases where the sCD14-ST concentrations in the blood were at least twice the normal values at the time of administration of the therapeutic agent were compared with that of the control cases (see Table 1). The therapeutic agent-administered cases were intravenously administered 10 mg/kg of F1024S-D2(3). The control cases were intravenously administered 10 mg/kg of human immunoglobulin (hIg) in lieu of F1024S-D2(3).
# The transition of the sCD14-ST concentration in the blood reflects the severity of sepsis.
# [9] = tested on: cecal ligation and puncture-induced peritonitis rabbit model; settings: CLP-induced peritonitis rabbit model; cited from earlier work
# [10] = tested on: human vascular endothelial cell; settings: cited from earlier work
# [11] = tested on: LPS-induced sepsis rabbit model; settings: cited from earlier work
molecule,measurement,setting,value
"CCCCCC/C=C\CCCCCCCCCC(=O)N[C@H]1[C@H](OC[C@H]2O[C@H](OP(=O)(O)O)[C@H](NC(=O)CC(=O)CCCCCCCCCCC)[C@@H](OCCCCCCCCCC)[C@@H]2O)O[C@H](COC)[C@@H](OP(=O)(O)O)[C@@H]1OCC[C@@H](CCCCCCC)OC [E5564, α-D-Glucopyranose, 3-O-decyl-2-deoxy-6-O-[2-deoxy-3-O-[(3R)-3-methoxydecyl]-6-O-methyl-2-[[(11Z)-1-oxo-11-octadecenyl]amino]-4-O-phosphono-β-D-glucopyranosyl]-2-[(1,3-dioxotetradecyl)amino]-1-(dihydrogen phosphate), tetrasodium salt]",Efficacy when sCD14-ST concentration is used as index,rabbit CLP model [1],reveals improvement in the efficacy
same,Efficacy when patient selection standards use sCD14-ST concentration as index,severe septic patients [2],improvement in E5564 efficacy can be observed
same,Mortality rate,severe septic patients [3],"a tendency to reduce the mortality rate was observed in a high-dosage group, but it was of no statistic significance"
"CCOC(=O)C1=CCCC[C@H]1S(=O)(=O)Nc1ccc(F)cc1Cl [Resatorvid, ethyl (6R)-6-[N-(2-chloro-4-fluorophenyl)sulfonyl]cyclohex-1-ene-1-carboxylate]","Recovery in leukocyte count, first-hour versus third-hour administered group",rabbit CLP model [4]; 10 mg/kg i.v.,observed more significantly in the first-hour administered group than in the third-hour administered group
same,Survival rate versus control group,"rabbit CLP model [4]; 10 mg/kg i.v. at 1 and 5 hours or 3 and 7 hours after surgery, checked until 48 hours",survival rates improved in the first-hour Resatorvid-administered group and the third-hour Resatorvid-administered group over the control group
same,Platelet count,"rabbit CLP model [4]; 12th hour after surgery, 10 mg/kg i.v.","showed a tendency to recover at the 12th hour after surgery, but failed to recover"
same,Leukocyte count versus control group,"rabbit CLP model [4]; 24th hour after surgery, 10 mg/kg i.v.",showed recovery in leukocyte count as compared with the control group
same,"Survival rate, first-hour versus third-hour administered group","rabbit CLP model [4]; first 24 hours, 10 mg/kg i.v.",the first-hour administered group showed a higher survival rate than the third-hour administered group
same,Efficacy when sCD14-ST concentration is used as index,rabbit CLP model [5],reveals improvement in the efficacy
same,Mortality rate,severe septic patients [6]; high-dosage group,"a tendency to reduce the mortality rate was observed among the high-dosage group, it was of no statistic significance; also recorded: a tendency to reduce the mortality rate was observed in the high-dosage group, it was of no statistic significance"
same,Serum IL-6 level,severe septic patients [6],failed to suppress the serum IL-6 level
same,Efficacy when patient selection standards use sCD14-ST concentration as index,severe septic patients [7],improvement in Resatorvid efficacy can be observed
F1024S-D2(3): modified form of an anti-CD14 antibody in which the domain 2 of urinary trypsin inhibitor (UTI) is bound to the anti-CD14 antibody; fusion protein (antibody) heavy: QIQLVQSGPELKKPGESVKISCKASGYTFTDYAMNWVKQAPGNGLKWMGWINTQTGKPTYADDFKQRFVFSLETSASTAYLQINNLNIEDTATYFCTRSTFYYSSYIYGWYFDFWGPGTMVTVSSASTKGPSVFPLAPCSRSTSESTAALGCLVKDYFPEPVTVSWNSGALTSGVHTFPAVLQSSGLYSLSSVVTVPSSSLGTKTYTCNVDHKPSNTKVDKRVESKYGPPGPSGPAPEFLGGPSVFLFPPKPKDTLMISRTPEVTCVVVDVSQEDPEVQFNWYVDGVEVHNAKTKPREEQFNSTYRVVSVLTVLHQDWLNGKEYKCKVSNKGLPSSIEKTISKAKGQPREPQVYTLPPSQEEMTKNQVSLTCLVKGFYPSDIAVEWESNGQPENNYKTTPPVLDSDGSFFLYSRLTVDKSRWQEGNVFSCSVMHEALHNHYTQKSLSLSLGKGSTVAACNLPIVSGPCRAFIKLWAFDAVKGKCVLFPYGGCQGNGNKFDSEKECREYCGVPGDGDEELLRFSN light: DIVMTQSPTSISISVGERVTMNCKASQNVGSNVDWYQQKTGQSPKLLIYKASNRYTGVPDRFTGSGSGTDFTFTISNMQAVDLAVYYCMQSNTNPPWTFGGGTKLELKRTVAAPSVFIFPPSDEQLKSGTASVVCLLNNFYPREAKVQWKVDNALQSGNSQESVTEQDSKDSTYSLSSTLTLSKADYEKHKVYACEVTHQGLSSPVTKSFNRGEC,Survival time,[8]; Severity Especially high,7 h
same,Survival time,[8]; Severity High,23 h
same,Survival time,[8]; Severity Medium,47 h
same,Effect on survival time versus control cases,[8]; especially high severity cases,no difference in survival time was observed
same,Effect on survival time versus control cases,"[8]; medium to high severity cases, administered when blood sCD14-ST at least twice the normal value",an effect of prolonging the survival time was observed
same,Survival rate,[9],improve the survival rate of a cecal ligation and puncture-induced peritonitis rabbit model
same,Production of IL-6 induced by LPS stimulation,[10],suppress production of IL-6
same,Survival rate,[11],improve the survival rate of an LPS-induced sepsis rabbit model
